These results are taken from patent publication EP0195116A2, “Compound having antibacterial and antimycotic activities, preparation thereof and pharmaceutical compositions containing it” (ISTITUTO FARMACO BIOLOGICO RIPARI GERO S.r.l., priority 1985, dated 1986).

The test system of series [1] is Pseudomonas aeruginosa OMI 1. Briefly: In vitro antibacterial activity (M.I.C.), scalar dilutions on agar plates. The class given is cell-based. Particulars: 18 hours incubation at 37°C. As to the method: (§1) The method was that of scalar dilutions of the test products on agar plates, in a 1:2 dilution ratio. Bacterial suspensions grown overnight in Brain Heart Infusion DIFCO, were diluted 1/100 in new culture medium and inoculated by means of a multiinoculation device.
(§2) M.I.C. values were determined by visual observation of bacterial growth, after 18 hours incubation, at 37°C.

The subject of the next series is Escherichia coli OMI 17. The series is described as above. The format is cell-based. To be noted: 18 hours incubation at 37°C. As to the method:
as §1, §2

For series [2], the system named is Streptococcus faecalis OMI 1. The series is described as above. The format is cell-based. To be noted: 18 hours incubation at 37°C. As to the method: as §1, §2
A further series concerns Staphylococcus aureus 35. Described as above. The class given is cell-based. As to the method:
as §1, §2

For the next series, the system named is Escherichia coli OMI 16. Described as above. The format is cell-based. To be noted: 18 hours incubation at 37°C. As to the method: as §1, §2
The subject of series [3] is Staphylococcus aureus ATCC 9144. The description is as above. The class given is cell-based. As to the method: as §1, §2
In series [4] the test system is Streptococcus faecalis OMI 2. The description is as above. To be noted: 18 hours incubation at 37°C. The format is cell-based. As to the method: as §1, §2
For another series, the system named is Staphylococcus aureus 38. The series is described as above. The class given is cell-based. As to the method: as §1, §2
For another series, the system named is Proteus vulgaris OMI 4. The series is described as above. The class given is cell-based. Particulars: 18 hours incubation at 37°C. As to the method: as §1, §2
In the next series the test system is Streptococcus pyogenes C. The series is described as above. The class given is cell-based. As to the method:
as §1, §2

The subject of series [5] is Streptococcus pyogenes A/1. Described as above. The class given is cell-based. As to the method: as §1, §2
The test system of the next series is Sarcina lutea ATCC 9341. The description is as above. The class given is cell-based. To be noted: 18 hours incubation at 37°C. As to the method:
as §1, §2

The test system of series [6] is Klebsiella pneumoniae ATCC 1003. Described as above. The format is cell-based. As to the method:
as §1, §2

In another series the test system is Microsporum canis 2. Briefly: In vitro antimycotic activity (M.I.C.), scalar dilutions in liquid medium on Microtiter plates. Particulars: hospital isolate, 48 and 72 hours incubation at 24°C. The class given is cell-based. As to the method:
(§3) The method is that of scalar dilutions of the test compounds on Microtiter plates, in a 1:2 dilution ratio. Suspensions (titre: 10^4) of fungal sporae and Candida cells, grown on Sabouraud, and Dextrose Agar, were collected at the moment of use in the same medium used for the test and inoculated by means of a multi inoculation Microtiter device.
(§4) M.I.C. values were determined by means of visual observation of fungal growth respectively after 24 hours (Candida albicans) and 48 and 72 hours (dermatophytes) incubation at 24°C.

In a further series the test system is Candida albicans 1. The series is described as above. The format is cell-based. As to the method:
as §3, §4

The next series deals with Aspergillus fumigatus 2. The series is described as above. The format is cell-based. As to the method: as §3, §4
The test system of the next series is Aspergillus fumigatus 1. The description is as above. The format is cell-based. As to the method:
as §3, §4

For the next series, the system named is Candida albicans 2. Described as above. The class given is cell-based. As to the method:
as §3, §4

The subject of another series is Microsporum canis 1. Described as above. The class given is cell-based. As to the method: as §3, §4
Another series has as its system Candida albicans 3. The description is as above. The class given is cell-based. As to the method:
as §3, §4

The subject of series [7] is Epidermophyton floccosum 1. The description is as above. The class given is cell-based. As to the method: as §3, §4
For series [8], the system named is Tricophyton mentagrophites 1. The series is described as above. The format is cell-based. As to the method:
as §3, §4

Series [9] is described as follows: Pharmacokinetics in the rat by oral administration (serum and urinary concentrations by agar-well diffusion bioassay). For orientation: A growth-free zone around the sample is the usual read-out of agar diffusion tests.

In brackets after ≈: the same amount, converted by molar mass.

For the molecule “1-{[2-(2,4-dichlorophenyl)-2-(2,4-dichlorophenyl)methoxy]ethyl}-1-pivaloyloxymethyl-lH-imidazolium chloride [RG 024]”, the M.I.C. was over 200 µg/mL in [1] (Isosensitest agar); 6.25 µg/mL in the series with Escherichia coli OMI 17 (Isosensitest agar); 6.25 µg/mL in series [2] (Isosensitest agar); 0.39 µg/mL in the series with Staphylococcus aureus 35 (Staphylococcus aureus 35, Isosensitest agar, 18 hours incubation at 37°C); 6.25 µg/mL in the series on Escherichia coli OMI 16 (Isosensitest agar); 0.19 µg/mL in series [3] (Staphylococcus aureus ATCC 9144, Isosensitest agar, 18 hours incubation at 37°C). The M.I.C. worked out at 6.25 µg/mL in series [4] (Isosensitest agar); 0.19 µg/mL with Staphylococcus aureus 38 (Staphylococcus aureus 38, Isosensitest agar, 18 hours incubation at 37°C); 50 µg/mL in the series with Proteus vulgaris OMI 4 (Isosensitest agar); 0.39 µg/mL in the series with Streptococcus pyogenes C (Streptococcus pyogenes C, Isosensitest agar, 18 hours incubation at 37°C); 0.19 µg/mL in series [5] (Streptococcus pyogenes A/1, Isosensitest agar, 18 hours incubation at 37°C); 0.19 µg/mL in the series with Sarcina lutea ATCC 9341 (Isosensitest agar). Also, the M.I.C. in [6] (Klebsiella pneumoniae ATCC 1003, Isosensitest agar, 18 hours incubation at 37°C) is 12.5 µg/mL; with Microsporum canis 2 it was 6.12 µg/mL; in the series on Candida albicans 1 (Candida albicans 1, hospital isolate, liquid medium, 24 hours incubation at 24°C), 1.56 µg/mL; in the series on Aspergillus fumigatus 2 (Aspergillus fumigatus 2, hospital isolate, liquid medium, incubation at 24°C) it was 3.12 µg/mL; in the series with Aspergillus fumigatus 1 (Aspergillus fumigatus 1, hospital isolate, liquid medium, incubation at 24°C), 6.25 µg/mL; in the series on Candida albicans 2 (Candida albicans 2, hospital isolate, liquid medium, 24 hours incubation at 24°C) it was 0.39 µg/mL. Moreover, the M.I.C. in the series on Microsporum canis 1 (Microsporum canis 1, hospital isolate, liquid medium, 48 and 72 hours incubation at 24°C) is 12.5 µg/mL; in the series on Candida albicans 3 (Candida albicans 3, hospital isolate, liquid medium, 24 hours incubation at 24°C) it was 0.78 µg/mL; in series [7] (Epidermophyton floccosum 1, hospital isolate, liquid medium, 48 and 72 hours incubation at 24°C), 1.56 µg/mL; in [8] (Tricophyton mentagrophites 1, hospital isolate, liquid medium, 48 and 72 hours incubation at 24°C), 0.78 µg/mL.
As a reminder, the MIC is the least concentration at which growth counts as inhibited. A low value points to a more susceptible organism. Regarding `Clc1ccc(COC(Cn2ccnc2)c2ccc(Cl)cc2Cl)c(Cl)c1` (stereo not drawn) [miconazole], the MIC in [1] (OMI1, Isosensitest agar) is over 200 µg/mL; in the series on Escherichia coli OMI 17 (OMI17, Isosensitest agar), 12.5 µg/mL (≈ 30 µM); in series [2] (Enterococcus faecalis, OMI1, Isosensitest agar), 12.5 µg/mL (≈ 30 µM); in the series with Staphylococcus aureus 35 (Staphylococcus aureus, 35, 18 h), 6.25 µg/mL (≈ 15 µM); with Escherichia coli OMI 16 (OMI16, Isosensitest agar), 25 µg/mL (≈ 60.1 µM); in series [3] (Staphylococcus aureus, ATCC9144, 18 h) it was 0.39 µg/mL (≈ 0.937 µM). Besides, the MIC was 6.25 µg/mL (≈ 15 µM) in [4] (Enterococcus faecalis, OMI2, Isosensitest agar); 0.39 µg/mL (≈ 0.937 µM) in the series with Staphylococcus aureus 38 (Staphylococcus aureus, 38, 18 h); 100 µg/mL (≈ 240 µM) with Proteus vulgaris OMI 4 (OMI4, Isosensitest agar); 0.39 µg/mL (≈ 0.937 µM) against Streptococcus pyogenes C (Streptococcus pyogenes, 18 h); 0.39 µg/mL (≈ 0.937 µM) in series [5] (Streptococcus pyogenes, 18 h); 0.19 µg/mL (≈ 0.457 µM) against Sarcina lutea ATCC 9341 (Micrococcus luteus, ATCC9341, Isosensitest agar). Also, the MIC in series [6] (Klebsiella pneumoniae, ATCC1003, 18 h) came to 25 µg/mL (≈ 60.1 µM); in the series on Microsporum canis 2, 6.12 µg/mL (≈ 14.7 µM); against Candida albicans 1 (Candida albicans, 1, 24 h), 3.12 µg/mL (≈ 7.5 µM); in the series with Aspergillus fumigatus 2 (Aspergillus fumigatus, 2), 6.25 µg/mL (≈ 15 µM); against Aspergillus fumigatus 1 (Aspergillus fumigatus, 1) it was 6.25 µg/mL (≈ 15 µM); in the series with Candida albicans 2 (Candida albicans, 2, 24 h), 1.56 µg/mL (≈ 3.75 µM). Besides, the MIC with Microsporum canis 1 (Microsporum canis, 1) came out at 12.5 µg/mL (≈ 30 µM); in the series with Candida albicans 3 (Candida albicans, 3, 24 h), 1.56 µg/mL (≈ 3.75 µM); in series [7] (Epidermophyton floccosum, 1), 1.56 µg/mL (≈ 3.75 µM); in series [8] it was 1.56 µg/mL (≈ 3.75 µM). In addition, the “presence / detectability of the compound over time” value in series [9] is “may not be detected in significant amounts after the 6 ^th hour”.
